# Experiments:
# T-47D Tam1 [1] = assay: drug sensitivity score (DSS) (DSS (dimensionless)); higher = more sensitive; extreme values may be limits of the assay; details: 4-OH-tamoxifen in medium 1 µM; 72 h
# In short: (§1)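 Drug sensitivity score, relative IC50 as the curve midpoint, and top-dose inhibition were derived from logistic dose–response fits in the Breeze pipeline. These fits used CellTiter-Glo viability, read on a PHERAstar and normalised to vehicle-only and positive controls. Breast cancer cell lines and resistant derivatives had been incubated for 72 h at 37 °C in 384-well plates holding library drugs at five concentrations spanning a 10 000-fold range. Resistant lines were grown in medium with 1 μM of the selecting drug.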
# ZR-75-1 Tam2 [2] = assay: as above; details: 4-OH-tamoxifen in medium 1 µM; 72 h
# In short: as §1
# BT-474 Tam2 [3] = assay: as above; details: 4-OH-tamoxifen in medium 1 µM; 72 h
# In short: as §1
# BT-474 [4] = assay: as above; details: 72 h
# In short: as §1
# MCF-7 [5] = assay: as above; details: 72 h
# In short: as §1
# MCF-7 Tam1 [6] = assay: as above; details: 4-OH-tamoxifen in medium 1 µM; 72 h
# In short: as §1
# ZR-75-1 Tam1 [7] = assay: as above; details: 4-OH-tamoxifen in medium 1 µM; 72 h
# In short: as §1
# T-47D [8] = assay: as above; details: 72 h
# In short: as §1
# ZR-75-1 [9] = assay: as above; details: 72 h
# In short: as §1
# BT-474 Tam1 [10] = assay: as above; details: 4-OH-tamoxifen in medium 1 µM; 72 h
# In short: as §1
# T-47D Tam2 [11] = assay: as above; details: 4-OH-tamoxifen in medium 1 µM; 72 h
# In short: as §1
# T-47D Tam1 [12] = assay: relative IC50 (midpoint of fitted logistic curve, plateau may be below 50% inhibition; CellTiter-Glo viability); higher = less potent; details: 4-OH-tamoxifen in medium 1 µM; 72 h
# In short: as §1
# ZR-75-1 Tam2 [13] = assay: as above; details: 4-OH-tamoxifen in medium 1 µM; 72 h
# In short: as §1
# BT-474 Tam2 [14] = assay: as above; details: 4-OH-tamoxifen in medium 1 µM; 72 h
# In short: as §1
# BT-474 [15] = assay: as above; details: 72 h
# In short: as §1
# MCF-7 [16] = assay: as above; details: 72 h
# In short: as §1
# MCF-7 Tam1 [17] = assay: as above; details: 4-OH-tamoxifen in medium 1 µM; 72 h
# In short: as §1
# ZR-75-1 Tam1 [18] = assay: as above; details: 4-OH-tamoxifen in medium 1 µM; 72 h
# In short: as §1
# T-47D [19] = assay: as above; details: 72 h
# In short: as §1
# ZR-75-1 [20] = assay: as above; details: 72 h
# In short: as §1
# BT-474 Tam1 [21] = assay: as above; details: 4-OH-tamoxifen in medium 1 µM; 72 h
# In short: as §1
# T-47D Tam2 [22] = assay: as above; details: 4-OH-tamoxifen in medium 1 µM; 72 h
# In short: as §1
compound,measurement,setting,value
COC1=C2C[C@@H](C)C[C@H](OC)[C@H](O)[C@@H](C)/C=C(\C)[C@H](OC(N)=O)[C@@H](OC)/C=C\C=C(/C)C(=O)NC(=CC1=O)C2=O [Geldanamycin],drug sensitivity score,T-47D Tam1 [1],14.8
same,drug sensitivity score,ZR-75-1 Tam2 [2],6.52
same,drug sensitivity score,BT-474 Tam2 [3],12.9
same,drug sensitivity score,BT-474 [4]; 4-OH-tamoxifen in medium 0 µM,9.69
same,drug sensitivity score,BT-474 [4]; 4-OH-tamoxifen in medium 1 µM,10.8
same,drug sensitivity score,MCF-7 [5]; 4-OH-tamoxifen in medium 0 µM,5.35
same,drug sensitivity score,MCF-7 [5]; 4-OH-tamoxifen in medium 1 µM,9.55
same,drug sensitivity score,MCF-7 Tam1 [6],4.81
same,drug sensitivity score,ZR-75-1 Tam1 [7],7.66
same,drug sensitivity score,T-47D [8]; 4-OH-tamoxifen in medium 0 µM,4.34
same,drug sensitivity score,T-47D [8]; 4-OH-tamoxifen in medium 1 µM,3.67
same,drug sensitivity score,ZR-75-1 [9]; 4-OH-tamoxifen in medium 0 µM,6.31
same,drug sensitivity score,ZR-75-1 [9]; 4-OH-tamoxifen in medium 1 µM,9.2
same,drug sensitivity score,BT-474 Tam1 [10],8.85
same,drug sensitivity score,T-47D Tam2 [11],6.85
same,relative IC50,T-47D Tam1 [12],235 nM
same,relative IC50,ZR-75-1 Tam2 [13],1440 nM
same,relative IC50,BT-474 Tam2 [14],494 nM
same,relative IC50,BT-474 [15]; 4-OH-tamoxifen in medium 0 µM,563 nM
same,relative IC50,BT-474 [15]; 4-OH-tamoxifen in medium 1 µM,518 nM
same,relative IC50,MCF-7 [16]; 4-OH-tamoxifen in medium 0 µM,2790 nM
same,relative IC50,MCF-7 [16]; 4-OH-tamoxifen in medium 1 µM,943 nM
same,relative IC50,MCF-7 Tam1 [17],1910 nM
same,relative IC50,ZR-75-1 Tam1 [18],1120 nM
same,relative IC50,T-47D [19]; 4-OH-tamoxifen in medium 0 µM,2950 nM
same,relative IC50,T-47D [19]; 4-OH-tamoxifen in medium 1 µM,3590 nM
same,relative IC50,ZR-75-1 [20]; 4-OH-tamoxifen in medium 0 µM,1340 nM
same,relative IC50,ZR-75-1 [20]; 4-OH-tamoxifen in medium 1 µM,1070 nM
same,relative IC50,BT-474 Tam1 [21],1250 nM
same,relative IC50,T-47D Tam2 [22],1340 nM
CCNC(=O)CCC/C=C\C[C@@H]1[C@@H](/C=C/[C@@H](O)CCc2ccccc2)[C@H](O)C[C@@H]1O [Bimatoprost],drug sensitivity score,T-47D Tam1 [1],0
same,drug sensitivity score,ZR-75-1 Tam2 [2],0
same,drug sensitivity score,BT-474 Tam2 [3],0
same,drug sensitivity score,BT-474 [4]; 4-OH-tamoxifen in medium 0 µM,0
same,drug sensitivity score,BT-474 [4]; 4-OH-tamoxifen in medium 1 µM,0
same,drug sensitivity score,MCF-7 [5]; 4-OH-tamoxifen in medium 0 µM,0
same,drug sensitivity score,MCF-7 [5]; 4-OH-tamoxifen in medium 1 µM,0
same,drug sensitivity score,MCF-7 Tam1 [6],0
same,drug sensitivity score,ZR-75-1 Tam1 [7],0
same,drug sensitivity score,T-47D [8]; 4-OH-tamoxifen in medium 0 µM,0
same,drug sensitivity score,T-47D [8]; 4-OH-tamoxifen in medium 1 µM,0.0302
same,drug sensitivity score,ZR-75-1 [9]; 4-OH-tamoxifen in medium 0 µM,0
same,drug sensitivity score,ZR-75-1 [9]; 4-OH-tamoxifen in medium 1 µM,0
same,drug sensitivity score,BT-474 Tam1 [10],0
same,drug sensitivity score,T-47D Tam2 [11],0
same,relative IC50,T-47D Tam1 [12],> 5500 nM
same,relative IC50,ZR-75-1 Tam2 [13],> 5500 nM
same,relative IC50,BT-474 Tam2 [14],> 5500 nM
same,relative IC50,BT-474 [15]; 4-OH-tamoxifen in medium 0 µM,> 5500 nM
same,relative IC50,BT-474 [15]; 4-OH-tamoxifen in medium 1 µM,> 5500 nM
same,relative IC50,MCF-7 [16]; 4-OH-tamoxifen in medium 1 µM,> 5500 nM
same,relative IC50,MCF-7 Tam1 [17],> 5500 nM
same,relative IC50,ZR-75-1 Tam1 [18],> 5500 nM
same,relative IC50,T-47D [19]; 4-OH-tamoxifen in medium 0 µM,> 5500 nM
same,relative IC50,T-47D [19]; 4-OH-tamoxifen in medium 1 µM,> 5500 nM
same,relative IC50,ZR-75-1 [20]; 4-OH-tamoxifen in medium 0 µM,> 5500 nM
same,relative IC50,ZR-75-1 [20]; 4-OH-tamoxifen in medium 1 µM,> 5500 nM
same,relative IC50,BT-474 Tam1 [21],> 5500 nM
same,relative IC50,T-47D Tam2 [22],> 5500 nM
O=C(O)CC[C@H]1CC[C@@](c2cc(F)ccc2F)(S(=O)(=O)c2ccc(Cl)cc2)CC1 [MK-0752],drug sensitivity score,T-47D Tam1 [1],0
same,drug sensitivity score,ZR-75-1 Tam2 [2],0
same,drug sensitivity score,BT-474 Tam2 [3],0
same,drug sensitivity score,BT-474 [4]; 4-OH-tamoxifen in medium 0 µM,0
same,drug sensitivity score,BT-474 [4]; 4-OH-tamoxifen in medium 1 µM,0
same,drug sensitivity score,MCF-7 [5]; 4-OH-tamoxifen in medium 0 µM,0
same,drug sensitivity score,MCF-7 [5]; 4-OH-tamoxifen in medium 1 µM,0
same,drug sensitivity score,MCF-7 Tam1 [6],0
same,drug sensitivity score,ZR-75-1 Tam1 [7],0
same,drug sensitivity score,T-47D [8]; 4-OH-tamoxifen in medium 0 µM,0
same,drug sensitivity score,T-47D [8]; 4-OH-tamoxifen in medium 1 µM,0
same,drug sensitivity score,ZR-75-1 [9]; 4-OH-tamoxifen in medium 0 µM,0
same,drug sensitivity score,ZR-75-1 [9]; 4-OH-tamoxifen in medium 1 µM,0
same,drug sensitivity score,BT-474 Tam1 [10],0
same,drug sensitivity score,T-47D Tam2 [11],0
same,relative IC50,T-47D Tam1 [12],> 1000 nM
same,relative IC50,ZR-75-1 Tam2 [13],> 1000 nM
same,relative IC50,BT-474 Tam2 [14],> 1000 nM
same,relative IC50,BT-474 [15]; 4-OH-tamoxifen in medium 0 µM,> 1000 nM
same,relative IC50,BT-474 [15]; 4-OH-tamoxifen in medium 1 µM,> 1000 nM
same,relative IC50,MCF-7 [16]; 4-OH-tamoxifen in medium 0 µM,> 1000 nM
same,relative IC50,MCF-7 [16]; 4-OH-tamoxifen in medium 1 µM,> 1000 nM
same,relative IC50,MCF-7 Tam1 [17],> 1000 nM
same,relative IC50,ZR-75-1 Tam1 [18],> 1000 nM
same,relative IC50,T-47D [19]; 4-OH-tamoxifen in medium 0 µM,> 1000 nM
same,relative IC50,T-47D [19]; 4-OH-tamoxifen in medium 1 µM,> 1000 nM
same,relative IC50,ZR-75-1 [20]; 4-OH-tamoxifen in medium 0 µM,> 1000 nM
same,relative IC50,ZR-75-1 [20]; 4-OH-tamoxifen in medium 1 µM,> 1000 nM
same,relative IC50,BT-474 Tam1 [21],> 1000 nM
same,relative IC50,T-47D Tam2 [22],> 1000 nM
